According to US20200239398A1, “METHYLENE-CYCLOALKYLACETATE DERIVATIVES AND THEIR USE IN TREATMENT OF NEUROTROPIC CONDITIONS” (Yissum Research Development Company of The Hebrew …, priority 2018, published 2020):
Like-named read-outs stand apart in the source and are kept apart here.

Experiments:
[1] = target: T1, Vascular endothelial growth factor receptor 2 (KDR tyrosine kinase) (VEGFR2) (Homo sapiens, UniProt P35968); assay: SAFETYscan VEGFR2 kinase Binding; conditions: Inhibitor mode, 10 μM HU-MCA-13, read-out: Maximal Response
T1 construct: DiscoverX (KINOMEscan)

[2] = target: Dopamine Receptor D2 (DRD2S) (Homo sapiens, UniProt P14416); assay: SAFETYscan DRD2S cAMP; type: cell-based; conditions: 10 μM HU-MCA-13
[3] = target: Histamine Receptor H1 (HRH1) (Homo sapiens, UniProt P35367); assay: SAFETYscan HRH1 Calcium Flux; type: cell-based; conditions: 10 μM HU-MCA-13, read-out: Maximal Response
[4] = Acute tolerance in mice, single iv dose; type: in vivo; conditions: C57BL/6, mouse, in vivo; male mice; predicted from the 250 mg/kg iv study; read-out: LD50 after single dose
Procedure: (§1) This pilot study was conducted to obtain acute information of the dose toxicity of HU-MCA-13 (Compound 13 in Scheme 1) in male mice. Male C57BL/6 mice, were injected intravenously with 0.2 ml of HU-MCA-13 in a dose of 250 mg/kg. Mice were monitored for 4 consecutive weeks for autonomic and neurotoxicity symptoms. The mortality and changes on body weight, clinical signs, gross observation, were monitored up to 30 days after treatment. No mortality was found at this high dose of 250 mg/kg. […] The mice were examined once a week for autonomic symptoms by measuring salivation, urinary delivery, pupillary constriction, heart rate, blood pressure, and hair contraction. […] Occurrences of either flaccid or spastic paralysis of the legs were not observed. […] Furthermore, no mice sudden deaths occurred within 24 hours after the injection or during the 4 weeks of observation. […] Sensory motor tests were scored individually and according to the modified neurologic function severity score (mNSS). The data from each individual test and the total score calculated from individual tests that make up the mNSS were measured. The following assays were used: a. beam balance test—mice were placed on a 1-inch wide beam for 60 seconds. A normal response is balance with steady posture for 60 seconds (a score of 0). Deficits are scored if the rat: grasps the side of the beam (a score of 1), hugs the beam and one limb falls down from the beam (a score of 2), hugs the beam and two limbs fall off the beam (a score of 3), attempts to balance on the beam, but falls off from 60 seconds (a score of 4), attempts to balance on the beam but falls off from […], or falls off with no attempt to balance or hang on the beam in <20 seconds (a score of 6); b. foot fault test—forelimb movement dysfunction, while walking on elevated metal grids, was monitored. The animal was placed on horizontal grids (85.5×26.5×20) cm with a glass enclosure for observation. With each weight bearing step, the forelimb can fall or slip between the metal support bars, an event recorded as a foot fault. The total number of forelimb steps and the total number of foot faults were recorded. The percentage of forelimb foot faults to the total steps that occurred within 2 minutes marks the test results; c. hind limb placing test—This test monitors reposition of hind limbs placed down and away from the table edge. The ability to retrieve and place the hind limbs back onto the table was scored. Immediate and complete limb retrieval was scored 0, delayed (>2 seconds) limb retrieval and/or interspersed flailing was scored 1, and no limb retrieval was scored 2; d. Increasing platform angle to slide test—This test monitors the strength and stability of resistance to slide down an inclined platform. It deploys a clean wooden board (60 cm by 40 cm) positioned horizontally. Mice were placed on the board with head facing up the increasing incline. The board then swings to increase the degree of inclination the rat experiences until slipping down the board feet first. The degree of the angle at which the rat relinquishes their grip/stance on the board (slips down) constitute the test results; e. the forelimb whole body suspension test—The test measures grip strength by duration of suspension by forepaws. The rat is suspended on a metal bar (diameter 5 mm) which it tightly holds onto by its forelimbs. The time (seconds) during which each rat could sustain its body weight while holding onto the bar is recorded. The mice drop from the bar onto soft material with no harm. The test was repeated three times and a mean result per rat was used as the score. Cumulatively these sensory motor/neurological findings indicate acute tolerability of 250 mg/kg HU-MCA-13 iv injection in Male C57BL/6 mice.

[5] = tested on: male C57BL/6 mice; assay: Acute tolerance in mice, single iv dose; type: in vivo
Procedure: as §1

[6] = target: T2, Cyclooxygenase 2 (COX 2) (Homo sapiens, UniProt P35354); assay: SAFETYscan COX 2 Enzymatic; type: biochemical; conditions: Inhibitor mode; 10 μM HU-MCA-13; read-out: Maximal Response
T2 construct: DiscoverX (SAFETYscan contract panel)

[7] = target: Histamine Receptor H2 (HRH2) (Homo sapiens, UniProt P25021); assay: SAFETYscan HRH2 cAMP; type: cell-based; conditions: 10 μM HU-MCA-13; for Emax: read-out: Maximal Response
[8] = tested on: male C57BL/6 mice; assay: Blood analysis 24 hours after injection; type: in vivo
Procedure: Tail vein blood samples were taken from DMSO 1% treated control (n=3) and HU-MCA-13-injected mice (n=4) after 24 hours from injection and submitted for hematocrit cell counting and biochemical analysis. Blood analyses are depicted in FIG. 4. No difference in any assay (blood count, electrolytes, coagulation parameters) was noted between the DMSO and HU-MCA-13-injected mice. Of special importance are normal liver (ALP, AST, ALT) functions and normal kidney (creatinine and blood urea nitrogen) functions, indicating sufficient organ integrity at the end of the experimental period.

[9] = target: T3, Norepinephrine transporter (NET) (Homo sapiens, UniProt P23975); assay: SAFETYscan NET Transporter; type: cell-based; conditions: Blocker mode; 10 μM HU-MCA-13; read-out: Maximal Response
T3 construct: DiscoverX (SAFETYscan contract panel)

[10] = tested on: Gamma-aminobutyric acid Receptor A (GABAA); type: cell-based; conditions: 10 μM HU-MCA-13
[11] = target: T4, cAMP-specific 3′,5′-cyclic phosphodiesterase 4D2 (PDE4D2) (Homo sapiens, UniProt Q08499); assay: SAFETYscan PDE4D2 Enzymatic; type: biochemical; conditions: Inhibitor mode; 10 μM HU-MCA-13; read-out: Maximal Response
T4 construct: DiscoverX (SAFETYscan contract panel)

[12] = target: Cannabinoid Receptor 1 (CNR1) (Homo sapiens, UniProt P21554); assay: SAFETYscan CNR1 cAMP; type: cell-based; conditions: 10 μM HU-MCA-13; for Emax: read-out: Maximal Response
[13] = target: T5, Acetylcholinesterase (AChE) (Homo sapiens, UniProt P22303); assay: SAFETYscan AChE Enzymatic; type: biochemical; conditions: Inhibitor mode; 10 μM HU-MCA-13; read-out: Maximal Response
T5 construct: DiscoverX (SAFETYscan contract panel)

[14] = 250 mg/kg iv, same for 1% DMSO group

Sequence of Histamine Receptor H2 (HRH2) (P25021 whole entry): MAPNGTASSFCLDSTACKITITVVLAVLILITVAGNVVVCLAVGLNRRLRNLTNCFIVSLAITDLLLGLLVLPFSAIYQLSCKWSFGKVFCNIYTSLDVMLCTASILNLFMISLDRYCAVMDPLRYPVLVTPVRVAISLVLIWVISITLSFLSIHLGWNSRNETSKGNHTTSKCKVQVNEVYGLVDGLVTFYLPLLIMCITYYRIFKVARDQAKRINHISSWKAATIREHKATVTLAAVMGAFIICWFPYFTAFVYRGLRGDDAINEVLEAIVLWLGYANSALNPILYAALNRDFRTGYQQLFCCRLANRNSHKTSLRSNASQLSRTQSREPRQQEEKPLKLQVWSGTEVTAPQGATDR
Sequence of Cannabinoid Receptor 1 (CNR1) (P21554 whole entry): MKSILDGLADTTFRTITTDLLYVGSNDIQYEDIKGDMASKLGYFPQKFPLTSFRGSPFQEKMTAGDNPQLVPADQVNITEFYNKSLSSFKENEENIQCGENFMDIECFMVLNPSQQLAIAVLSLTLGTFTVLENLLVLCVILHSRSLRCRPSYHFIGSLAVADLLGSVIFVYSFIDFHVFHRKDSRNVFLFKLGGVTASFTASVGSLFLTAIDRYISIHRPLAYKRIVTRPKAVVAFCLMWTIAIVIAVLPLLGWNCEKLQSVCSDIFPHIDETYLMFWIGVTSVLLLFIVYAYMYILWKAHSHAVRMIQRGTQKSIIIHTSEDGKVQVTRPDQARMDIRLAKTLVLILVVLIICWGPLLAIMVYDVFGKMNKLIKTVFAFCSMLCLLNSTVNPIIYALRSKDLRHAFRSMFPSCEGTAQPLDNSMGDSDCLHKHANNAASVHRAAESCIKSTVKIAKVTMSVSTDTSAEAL
Sequence of Histamine Receptor H1 (HRH1) (P35367 whole entry): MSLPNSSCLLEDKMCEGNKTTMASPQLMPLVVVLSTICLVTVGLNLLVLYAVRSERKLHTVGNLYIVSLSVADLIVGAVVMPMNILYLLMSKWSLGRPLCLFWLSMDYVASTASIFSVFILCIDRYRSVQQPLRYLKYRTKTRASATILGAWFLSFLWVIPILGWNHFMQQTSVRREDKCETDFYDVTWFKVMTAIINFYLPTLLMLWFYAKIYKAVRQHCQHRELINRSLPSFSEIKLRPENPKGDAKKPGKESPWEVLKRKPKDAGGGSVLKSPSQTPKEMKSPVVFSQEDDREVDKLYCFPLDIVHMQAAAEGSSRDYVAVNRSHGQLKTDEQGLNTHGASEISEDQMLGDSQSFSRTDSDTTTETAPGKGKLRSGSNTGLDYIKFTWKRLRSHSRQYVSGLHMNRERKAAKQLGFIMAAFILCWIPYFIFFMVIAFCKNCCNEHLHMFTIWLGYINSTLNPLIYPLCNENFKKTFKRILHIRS
Sequence of Dopamine Receptor D2 (DRD2S) (P14416 1-414 isoform P14416-2): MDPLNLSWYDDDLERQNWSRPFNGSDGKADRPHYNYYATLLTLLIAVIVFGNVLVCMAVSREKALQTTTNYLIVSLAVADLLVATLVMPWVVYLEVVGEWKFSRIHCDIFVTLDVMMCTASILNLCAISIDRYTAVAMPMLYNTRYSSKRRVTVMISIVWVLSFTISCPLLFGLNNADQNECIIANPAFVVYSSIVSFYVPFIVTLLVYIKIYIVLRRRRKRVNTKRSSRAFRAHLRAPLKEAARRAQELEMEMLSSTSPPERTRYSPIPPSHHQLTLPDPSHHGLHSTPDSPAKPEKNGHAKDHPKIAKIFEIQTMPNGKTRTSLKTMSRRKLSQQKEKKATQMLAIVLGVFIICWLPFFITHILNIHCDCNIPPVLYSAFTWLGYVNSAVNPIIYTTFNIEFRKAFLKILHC
T5 sequence (P22303 32-614): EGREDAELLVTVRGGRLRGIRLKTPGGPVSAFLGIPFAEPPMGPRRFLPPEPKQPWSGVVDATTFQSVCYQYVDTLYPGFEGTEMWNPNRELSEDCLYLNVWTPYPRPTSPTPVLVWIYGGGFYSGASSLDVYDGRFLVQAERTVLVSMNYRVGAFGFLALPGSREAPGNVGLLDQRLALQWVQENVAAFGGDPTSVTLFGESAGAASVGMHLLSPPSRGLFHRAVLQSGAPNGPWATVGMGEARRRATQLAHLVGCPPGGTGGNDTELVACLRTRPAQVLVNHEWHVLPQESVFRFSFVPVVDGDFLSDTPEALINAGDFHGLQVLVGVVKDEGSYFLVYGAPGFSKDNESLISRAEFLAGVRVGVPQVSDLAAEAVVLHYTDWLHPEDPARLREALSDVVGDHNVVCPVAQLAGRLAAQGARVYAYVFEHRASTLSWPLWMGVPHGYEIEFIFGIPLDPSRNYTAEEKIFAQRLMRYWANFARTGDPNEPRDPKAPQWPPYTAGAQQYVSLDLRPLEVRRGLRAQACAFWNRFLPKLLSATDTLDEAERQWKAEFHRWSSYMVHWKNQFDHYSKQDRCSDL
T1 sequence (P35968 20-1356): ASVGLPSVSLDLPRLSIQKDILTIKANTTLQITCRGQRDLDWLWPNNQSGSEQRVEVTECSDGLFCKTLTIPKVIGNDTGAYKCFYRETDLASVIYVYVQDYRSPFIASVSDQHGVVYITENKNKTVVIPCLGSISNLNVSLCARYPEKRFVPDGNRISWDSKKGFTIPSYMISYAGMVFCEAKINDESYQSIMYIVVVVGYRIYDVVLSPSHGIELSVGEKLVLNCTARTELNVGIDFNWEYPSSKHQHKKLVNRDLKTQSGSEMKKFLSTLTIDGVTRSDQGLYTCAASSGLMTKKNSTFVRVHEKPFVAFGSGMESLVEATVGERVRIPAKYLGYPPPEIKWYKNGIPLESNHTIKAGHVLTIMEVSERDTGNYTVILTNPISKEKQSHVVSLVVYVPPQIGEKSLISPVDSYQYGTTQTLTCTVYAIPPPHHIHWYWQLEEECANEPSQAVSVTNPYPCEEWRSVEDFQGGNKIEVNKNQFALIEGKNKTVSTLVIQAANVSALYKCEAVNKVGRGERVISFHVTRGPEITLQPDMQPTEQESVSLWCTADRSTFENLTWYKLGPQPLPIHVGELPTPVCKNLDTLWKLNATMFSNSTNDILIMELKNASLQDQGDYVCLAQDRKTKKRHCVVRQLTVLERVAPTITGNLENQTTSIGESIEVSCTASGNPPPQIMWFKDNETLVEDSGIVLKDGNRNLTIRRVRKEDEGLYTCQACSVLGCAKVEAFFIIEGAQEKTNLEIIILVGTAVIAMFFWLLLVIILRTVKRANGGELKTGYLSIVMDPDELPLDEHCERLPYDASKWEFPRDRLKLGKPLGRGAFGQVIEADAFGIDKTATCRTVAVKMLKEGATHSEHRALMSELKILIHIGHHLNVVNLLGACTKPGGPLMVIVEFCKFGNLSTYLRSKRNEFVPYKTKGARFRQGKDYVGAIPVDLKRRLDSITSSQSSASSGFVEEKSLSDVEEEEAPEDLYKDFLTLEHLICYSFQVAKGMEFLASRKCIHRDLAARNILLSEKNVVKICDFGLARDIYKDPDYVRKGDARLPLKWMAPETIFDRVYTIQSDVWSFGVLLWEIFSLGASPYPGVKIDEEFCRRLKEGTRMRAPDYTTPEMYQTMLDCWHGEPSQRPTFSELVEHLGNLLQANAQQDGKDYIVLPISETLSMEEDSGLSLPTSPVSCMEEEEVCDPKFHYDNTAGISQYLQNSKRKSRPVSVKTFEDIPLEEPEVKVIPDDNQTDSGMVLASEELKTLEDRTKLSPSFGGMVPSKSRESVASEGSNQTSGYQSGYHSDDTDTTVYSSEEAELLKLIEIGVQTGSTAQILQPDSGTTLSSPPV
T2 sequence (P35354 18-604): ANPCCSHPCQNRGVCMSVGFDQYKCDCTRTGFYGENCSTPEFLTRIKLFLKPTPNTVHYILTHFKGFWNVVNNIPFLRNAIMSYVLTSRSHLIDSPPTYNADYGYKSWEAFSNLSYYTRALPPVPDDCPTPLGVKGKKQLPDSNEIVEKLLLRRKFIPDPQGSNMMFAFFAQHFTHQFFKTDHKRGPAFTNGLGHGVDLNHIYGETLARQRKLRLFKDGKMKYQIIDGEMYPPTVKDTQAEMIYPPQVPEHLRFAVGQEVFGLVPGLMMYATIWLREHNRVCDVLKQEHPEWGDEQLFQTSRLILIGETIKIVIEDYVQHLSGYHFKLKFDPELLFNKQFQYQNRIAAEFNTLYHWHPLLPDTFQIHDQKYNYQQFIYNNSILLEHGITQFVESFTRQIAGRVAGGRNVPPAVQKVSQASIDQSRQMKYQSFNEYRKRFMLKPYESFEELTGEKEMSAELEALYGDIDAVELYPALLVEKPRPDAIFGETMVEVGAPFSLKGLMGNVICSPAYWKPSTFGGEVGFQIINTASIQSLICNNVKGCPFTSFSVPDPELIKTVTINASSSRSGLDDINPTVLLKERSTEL
T4 sequence (Q08499 303-809 limits assumed): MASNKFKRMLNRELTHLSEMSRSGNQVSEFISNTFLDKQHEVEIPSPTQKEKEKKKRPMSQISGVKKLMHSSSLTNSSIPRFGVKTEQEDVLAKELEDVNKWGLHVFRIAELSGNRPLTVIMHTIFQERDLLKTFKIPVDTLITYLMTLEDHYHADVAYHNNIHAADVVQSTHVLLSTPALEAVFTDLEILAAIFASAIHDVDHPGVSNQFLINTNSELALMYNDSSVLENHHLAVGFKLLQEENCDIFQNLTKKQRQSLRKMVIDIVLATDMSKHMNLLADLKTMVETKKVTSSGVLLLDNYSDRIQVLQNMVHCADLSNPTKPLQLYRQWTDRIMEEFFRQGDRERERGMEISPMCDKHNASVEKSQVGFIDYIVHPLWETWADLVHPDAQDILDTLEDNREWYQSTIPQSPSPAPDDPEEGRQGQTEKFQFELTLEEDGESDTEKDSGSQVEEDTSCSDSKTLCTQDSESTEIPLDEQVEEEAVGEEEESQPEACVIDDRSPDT

C=CCC1CCC[C@@H](CCC(=O)O)C1=C (some centres unmarked) [Compound 13]
Emax [1]: 21.7%
Emax ([2]; read-out: Maximal Response, Agonist mode): 0%
Emax ([2]; read-out: Maximal Response, Antagonist mode): 0.51%
Emax ([3]; Agonist mode): 0%
Emax ([3]; Antagonist mode): 1.05%
LD50 at 30 days [4]: > 2000 mg/kg
neurotoxicity signs (paralysis, motor activity, behavior) ([5]; 250 mg/kg iv): No paralysis, altered motor activity, or irregular behavior was observed
mortality ([5]; 250 mg/kg iv single dose, up to 30 days): No mortality
autonomic symptoms (salivation, urinary delivery, pupillary constriction, heart rate, blood pressure, hair contraction) ([5]; 250 mg/kg iv vs 1% DMSO): no differences were observed
changes on body weight ([5]; 250 mg/kg iv vs 1% DMSO treated group): No significant changes
body weight at end [5, 14]: 27 gram
body weight at start [5, 14]: 21 gram
cutaneous hematomas around the injection site or at distant locations ([5]; within 24 hours after injection, 250 mg/kg iv): have not been observed
Emax [6]: 7.99%
Emax ([7]; Agonist mode): 1.78%
Maximal Response ([7]; Antagonist mode): 26.94%
Emax ([7]; Antagonist mode): 26.9%
kidney (creatinine and blood urea nitrogen) functions ([8]; 24 hours after 250 mg/kg iv): normal
liver (ALP, AST, ALT) functions ([8]; 24 hours after 250 mg/kg iv): normal
bilirubin concentration ([8]; in both control and HU-MCA-13-injected mice): some fluctuation
blood count, electrolytes, coagulation parameters ([8]; vs DMSO 1% control, 24 hours after 250 mg/kg iv): No difference
Emax [9]: 3.53%
Maximal Response ([10]; Blocker mode): 7.74%
Maximal Response ([10]; Opener mode): 3.68%
Emax [11]: 0%
Maximal Response ([12]; Agonist mode): 50.22%
Emax ([12]; Agonist mode): 50.1%
Emax ([12]; Antagonist mode): 0.57%
Emax [13]: 4.27%
